# Patent publication US20170296568A1, “SIRTUIN GENE POTENTIATOR, AND PHARMACEUTICAL PRODUCT, COSMETIC PRODUCT, AND FOOD PRODUCT USING SAME” (MORISHITA JINTAN CO., LTD., priority 2012, published 2017)
# Key:
# Format in all cases: cell-based, human
# hSIRT1 promoter [1] = test: Screening for SIRT1 enhancing polyphenol or terpenoid: hSIRT1 promoter activity (EGFP fluorescence) in Caco-2-hSIRT1p-EGFP cells; conditions: 10 μM, 2 days after addition, relative ratio to control (PBS), FIG. 1
# Excerpt: First, the promoter region (−1593 to −1 bp) of hSIRT1 (human SIRT1) was acquired using the LA-PCR method using, as a template, a human genome DNA extracted from TIG-1 cells (obtained from Institute of Development, Aging and Cancer, Tohoku University), with primers synthesized based on reported information of the hSIRT1 genomic sequence so as to synthesize primers having added AseI and NheI recognition sequences at their respective ends (hSIRT1p-AseI (SEQ ID NO: 1) and hSIRT1p-NheI (SEQ ID NO: 2)). The PCR reaction condition was at 94° C. for 1 minute, followed by at 98° C. for 20 seconds; and at 68° C. for 2 minutes, 34 cycles; and then at 72° C. for 10 minutes for extension reaction. LA-Taq from Takara Shuzo Co., Ltd. was used as the TaqDNApolymerase. The primers were synthesized by Nippon EGT based on our request.
# The hSIRT1 promoter fragment obtained by the LA-PCR was subjected to TA cloning using a pGEM-T Easy vector (manufactured by Promega KK). Furthermore, the base sequence thereof was confirmed by sequencing. The hSIRT1 promoter fragment, inserted into the pGEM-T Easy vector, was cut out by digestion with the restriction enzymes AseI and NheI, and the CMV promoter of a pEGFP-C3 (manufactured by Takara Bio Inc.) was removed by digestion with AseI and NheI in a similar manner, and the hSIRT1 promoter fragment was inserted into that removed site, so that phSIRT1p-EGFP was obtained.
# Transfection was performed using a LIPOFECT AMINE 2000 REAGENT (manufactured by Life Technologies) according to its protocol. On the day before the transfection, Caco-2 cells (human colonic cancer-derived cells obtained from Riken BioResource Center) were plated at 1.0×10^6 in a 10-mL dish. On the day of the transfection, phSIRT1p-EGFP (10 μg) was diluted in a serum-free OPTI-MEM medium to a volume of 750 μL, after which 15 μL of LIPOFECT AMINE Reagent was diluted in a serum-free OPTI-MEM medium to […], and they were incubated at room temperature for 5 minutes. The transfection using the LIPOFECT AMINE Reagent was performed in the absence of serum, during which the culture medium of the Caco-2 cells plated on the previous day was removed, and was replaced by 5 mL of serum-free OPTI-MEM medium. After 30 minutes of this, 1.5 mL of DNA-LIPOFECT AMINE 2000 mixture was added to each 10-mL dish. After the addition, the dish was gently shaken to mix the DNA-LIPOFECT AMINE and the OPTI-MEM. After the culture for 3 hours, the DNA-LIPOFECT AMINE mixture solution was removed, and the medium was replaced by a serum-containing culture medium. Subsequently, culture was performed under the environment at 5% CO2/95% air and 37° C. for 21 hours, and the culture medium was replaced by a new one.
# Since phSIRT1p-EGFP is resistant to the drug G418, the drug G418 was added to the transfected cells to 70 μg/mL to subject them to the drug selection for a week. The culture medium was replaced by a new one every three days, and G418 was added every time at the same concentration. Accordingly, Caco-2-hSIRT1p-EGFP cells were obtained.
# Caco-2-hSIRT1p-EGFP cells were plated at 0.6×10^4 cells/well in a 96-well plate. On the next day, 10 μM polyphenol or terpenoid, or control (PBS) was added to each well. At 2 days after the addition, the culture solution was aspirated, after which 100 μL of 4% paraformaldehyde was added to each well, and the plate was allowed to stand at room temperature for 10 minutes. After the plate was allowed to stand for 10 minutes, 4% paraformaldehyde was aspirated, 100 μL of Cellstain (registered trademark)-Hoechst 33342 solution (Dojindo) diluted 1/500 with PBS was added to each well, and the plate was allowed to stand at room temperature in the dark for 15 minutes and the solution was then aspirated. Then, 100 μL of PBS was added to each well, and the fluorescence intensity was measured using an IN Cell Analyzer 1000 (GE Healthcare, Amersham Place, UK). The promoter activity was represented by a relative ratio to the activity of the control.
# sirtuin gene hSIRT1 = test: Expression level of endogenous sirtuin gene hSIRT1 in Caco-2 cells (quantitative PCR, relative to β-actin); conditions: 10 μM, 2 days, qPCR normalised to β-actin, FIG. 2
# Description: Caco-2 cells were plated at 3.0×10^5 cells for a 5-mL dish. After 24 hours, each polyphenol was added to be 10 μM. Note that as a negative control, none of polyphenol nor terpenoid was added, and as a positive control, 10 μM resveratrol was added. At 2 days after this treatment, RNA was collected.
# The total RNA was prepared using High Pure RNA Isolation Kit (manufactured by Roche, Indianapolis, Ind., USA). For the procedures from the total RNA preparation to the reverse transcription, the reagents and tools used were RNase-free. Cells were prepared in a sub-confluent to confluent condition in a cell culture dish (Greiner bio-one, Monroe, N.C., USA). The medium was completely removed, 200 μL of PBS, and 400 μL of cell lysis solution, which was contained in High Pure RNA Isolation Kit, were added, and the entire dish was well covered by the cell lysis solution. When the viscosity of the cell lysis solution was decreased, the cell lysis solution was collected into a 1.5-mL sample tube. The collected sample was well suspended. A filter tube and a collection tube, which were contained in High Pure RNA Isolation Kit, were assembled, and the sample was pipetted into a buffer reservoir in the upper portion of the filter tube, and was centrifuged at 8,000×g for 15 seconds. The flowthrough liquid into the collection tube was discarded, and the filter tube and the collection tube were again assembled. Then, 90 μL of DNase incubation buffer per sample was pipetted into a sterile reaction tube, and 10 μL of DNase I was added into the tube and mixed. The mixture liquid was pipetted into the buffer reservoir in the upper portion of the filter tube, was added on the glass fiber fleece in the filter tube, and was incubated at room temperature for 15 minutes. Then, 500 μL of wash buffer I, which was contained in High Pure RNA Isolation Kit, was added to the buffer reservoir in the upper portion of the filter tube, and was centrifuged at 8,000×g for 15 seconds. The flowthrough liquid into the collection tube was discarded, and the filter tube and the collection tube were again assembled. Then, 500 μL of wash buffer II was added to the buffer reservoir in the upper portion of the filter tube, and centrifugation was performed at 8,000×g for 15 seconds. The liquid discharged to the collection tube was discarded, and the filter tube and the collection tube were again assembled. Then, 200 μL of wash buffer II was added to the buffer reservoir in the upper portion of the filter tube, and centrifugation was performed at 13,000×g for 2 minutes, after which a remaining wash buffer in the filter tube was removed. The collection tube was discarded, the filter tube was inserted into a sterile reaction tube, and 50 μL of elution buffer was added in the filter tube, and centrifugation was performed at 8,000×g for 1 minute. The eluate obtained by the procedures was taken as an RNA solution. The concentration of RNA in the solution was calculated based on the light absorbance at 260 nm with a NanoDrop 2000/2000c spectrophotometer (Thermo Scientific, Waltham, Mass., USA), for use in subsequent experiments.
# Then, 5 pmol of oligo(dT)20 primer was added to 1.0 μg of total RNA extracted from the cells, and sterile water was further added thereto so that the total liquid amount was 13 μL. Heat treatment was performed using a thermal cycler (Peltier Thermal Cycler PTC-200, MJ Research, Watertown, Mass., USA) at 65° C. for 5 minutes, and the resultant was immediately transferred in ice to quench it. During this treatment, the reverse transcriptase reaction program was advanced to the 42° C. stage and was temporarily stopped. A mixture solution obtained by mixing 4 μL of reverse transcriptase reaction buffer solution, 2 μL of 1 mM dNTPs (Amershan Pharmacia Biotech., Buckinghamshire, UK), and 0.5 μL of reverse transcriptase ReverTra Ace (TOYOBO, Osaka, Japan) per sample was added to and gently mixed with the sample on ice after 5 minutes. […]
# hSIRT1 promoter [2] = test: Enhancing the hSIRT1 promoter: EGFP fluorescence intensity in HaCaT-hSIRT1p-EGFP cells by flow cytometry; conditions: 10 μM in DMSO, 24 hours after addition, FIG. 4
# Description: HaCaT cells (human epidermis keratinocyte-derived cell lines, provided by Dr. Takumi Miura, National Center for Child Health and Development) were cultured using a Dalbecco's Modified Eagle Medium (DMEM) medium (Nissui Pharmaceutical Co., Ltd, Tokyo) supplemented with 10% FBS, 100,000 U/L penicillin (Meiji, Tokyo), 100 mg/L streptomycin (Meiji), and 2.0 g/L NaHCO3. These cells were subcultured at 37° C. in the presence of 5% CO2.
# HaCaT cell lines (HaCaT-hSIRT1p-EGFP cells) into which the vector (phSIRT1-EGFP) described in Reference Example 1 was integrated were prepared as below.
# The HaCaT cells were disseminated at 9.0×10^5 in a φ60-mm dish, and were cultured in 10% FBS supplemented DMEM medium. Cells as a control were prepared in a similar manner. After 24 hours, 8 μg of phSIRT1p-EGFP was added to and mixed with 300 μL of DMEM medium, 24 μL of Hilymax (manufactured by Dojindo Laboratories), which is a transfection reagent, was further added and mixed therewith, and the mixture was incubated for 15 minutes at room temperature. Subsequently, the total amount was added to the HaCaT cells. After 3 hours, the medium was replaced by 10% FBS supplemented DMEM medium.
# At 24 hours after the gene introduction, the medium was replaced by 10% FBS supplemented DMEM medium containing 750 μg/mL of G418 (Wako Pure Chemical Industries, Ltd.). After visually confirming under a microscope that all the control non-treated HaCaT cells were killed, the subculture was continued using 10% FBS supplemented DMEM containing 150 μg/mL of G418.
# It was confirmed with flow cytometry that the phSIRT1p-EGFP vector was reliably transferred inro the cells after the subculture. The above-described cells and the control non-treated HaCaT cells were plated at 7.0×10^5 per a φ60-mm dish, respectively. After 24 hours, the cells were picked up and well suspended in 2 mL of 5% FBS supplemented DMEM medium, and were filtered through a Nylon Mesh (Kyoshin Rikoh Inc., Japan), and the EGFP fluorescence intensity thereof was measured with a Flow Cytometer (EPICS, BeckmanCoulter). The analysis was performed using software FlowJo (Tree Star, Ashland Oreg.), so that the EGFP fluorescence intensity of each cell was represented as a histogram.
# HaCaT-hSIRT1p-EGFP cells were plated at 1.7×10^6 cells in a φ60-mm dish (as measured by flow cytometry) or at 2.0×10^4 cells/well in a 96-well plate (as measured by an IN Cell Analyzer 1000). After 24 hours, 10 μM of each polyphenol or terpenoid dissolved in DMSO (Wako Pure Chemical Industries, Ltd.) was added thereto. Note that as a negative control, the same amount of DMSO was added without polyphenol or terpenoid, and as a positive control, 10 μM resveratrol was added. At 24 hours after the addition of the various polyphenols or terpenoids or the controls, the fluorescence intensity was measured by flow cytometry.
SMILES,relative hSIRT1 promoter activity (hSIRT1 promoter [1]),relative gene expression level of hSIRT1 (sirtuin gene hSIRT1),EGFP fluorescence intensity (hSIRT1 promoter activity) (hSIRT1 promoter [2])
C[C@@]12CCc3occc3[C@H]1CC[C@@]13C[C@@H](CC[C@H]12)[C@@](O)(CO)C3 [cafestol],particularly strong hSIRT1 promoter enhancing activity,hSIRT1 transcription enhancing effect was observed,–
O=C(O[C@@H]1O[C@@H]2COC(=O)c3cc(O)c(O)c(O)c3-c3c(cc(O)c(O)c3O)C(=O)O[C@H]2[C@H](OC(=O)c2cc(O)c(O)c(O)c2)[C@H]1OC(=O)c1cc(O)c(O)c(O)c1)c1cc(O)c(O)c(O)c1 [eugeniin],particularly strong hSIRT1 promoter enhancing activity,hSIRT1 transcription enhancing effect was observed,–
CC1(C)[C@@H](O[C@H]2O[C@H](C(=O)O)[C@@H](O)[C@H](O)[C@H]2O[C@@H]2O[C@H](C(=O)O)[C@@H](O)[C@H](O)[C@H]2O)CC[C@]2(C)[C@H]3C(=O)C=C4[C@@H]5C[C@@](C)(C(=O)O)CC[C@]5(C)CC[C@@]4(C)[C@]3(C)CC[C@@H]12 [glycyrrhizin],–,hSIRT1 transcription enhancing effect was observed,–
O=C(O[C@H]1[C@@H]2OC(=O)c3cc(O)c(O)c(O)c3-c3c(cc(O)c(O)c3O)C(=O)OC[C@H]2OC(O)[C@@H]1OC(=O)c1cc(O)c(O)c(O)c1)c1cc(O)c(O)c(O)c1 (stereo partly shown) [tellimagrandin I],particularly strong hSIRT1 promoter enhancing activity,–,hSIRT1 expression effect on skin epidermis cells was seen
